Patent US20070254955A1, “Nail softener for use in deformed-nail corrective treatment or nail-structure modification, enclosure for external chemicals and method of correcting deformed nail” (priority 2003, published 2007)

Experiments:
ingrown nail [1] = experiment: Deformed-nail corrective treatment with nail softener (First Example, sufficiently grown ingrown nail); type: in vivo; settings: nail repositioned by fingertips, immobilized with resin for one hour; FIG. 4
Text: With reference to the drawings, a deformed-nail correcting method using the nail softener according to one embodiment of the present invention will be described below. The cases of ingrown nails include one case of a sufficiently grown nail, and another case of a deep nail. While the deformed-nail correcting method using the nail softener of the present invention can be applied to both the cases, the first example will be described in conjunction with one case where the method is applied to a sufficiently grown nail. An emulsifying agent was first added to ammonium thioglycolate serving as a reducing agent to prepare a 5% (weight %) ammonium thioglycolate mail softener in the form of cream or paste. […] The number of the small through-hole may be changed according to the state of the nail, and may be, for example, two. The prepared nail softener was applied onto the entire surface of the nail at a thickness of about 5 mm, and left the nail untouched. After 25 minutes from the application of the nail softener to the nail, the state of the nail was checked. […] Thus, the nail softener was washed away and removed from the nail using a hot water. […] In order to maintain the corrected position, a resin 12 was attached onto the upper surface of the nail to close the small through-holes 10 formed in the front region of the nail (see FIG. 3). […]

ingrown nail [2] = experiment: Ingrown-nail correction with nail softener in enclosure plus superelastic alloy wire (Second Example, deep nail); type: in vivo; settings: reposition by action of superelastic alloy wire
Text: With reference to the drawings, an ingrown-nail correcting method using the enclosure according to one embodiment of the present invention will be described below. As mentioned above, the cases of ingrown nails include one case of a sufficiently grown nail, and another case of a deep nail. While the deformed-nail correcting method using the enclosure of the present invention can be applied to both the cases, the second example will be described in conjunction with one case where the method is applied to a deep nail. An emulsifying agent was first added to ammonium thioglycolate serving as a reducing agent to prepare a 5% (weight %) ammonium thioglycolate mail softener in the form of cream or paste. […] The through-hole P1c was formed to fix one of the ends of a superelastic alloy wire w (see the aforementioned Patent Publication). Further, four small holes P2 serving as anchoring holes of resin r for fixing the other end of the wire were formed in the other lateral side region n2 of the nail. One of the ends of the wire w is inserted into the central through-hole p1c. Then, the wire w was folded toward the other side region n2 or a flat region, and brought into close contact with the surface of the nail. A resin r was applied onto the curved region n1 to fix one end of the wire w. An ultra-fast cure type autopolymerizing resin (GC Unifast II: trade name of GC Co.) was used as the resin. […]

N[C@@H](CS)C(=O)O [cysteine]
result of the corrective treatment (correction of the deformed nail) (ingrown nail [1]): substantially the same result | result of the corrective treatment (reposition of the ingrown nail) (ingrown nail [2]): substantially the same result

O=C(O)CS [thioglycolic acid]
result of the corrective treatment (correction of the deformed nail) (ingrown nail [1]): substantially the same result | result of the corrective treatment (reposition of the ingrown nail) (ingrown nail [2]): substantially the same result
